Results as given in US20240247015A1, “PHOSPHORUS DERIVATIVES AS NOVEL SOS1 INHIBITORS” (BAYER AKTIENGESELLSCHAFT, priority 2021, published 2024).
pIC50: −log10 of the molar value.

Molecular target: interaction of human SOS1 (SOS1) with human K-RasG12C (Homo sapiens (Human), UniProt Q07889)
Assay: Biochemical assay: hK-RasG12C interaction assay with hSOS1 (HTRF)
Type: binding
Details: GST-hK-RasG12C with His-hSOS1, 60 min incubation at 20° C., mean, read-out: K-RasG12C - SOS interaction assay IC50 (mean)
Summary of the method: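 Compounds, duplicates at 11 concentrations from 0.073 nM to 20 µM, were preincubated 2 min with 10 nM GST-hK-RasG12C, then 20 nM His-hSOS1 was added, all at 20 °C. After 60 min, 665/620 nm HTRF ratio normalized to DMSO and SOS1-free controls; IC50 by 4-parameter fit.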

Sequence of interaction of human SOS1 (SOS1) with human K-RasG12C (Q07889 564-1049 limits assumed): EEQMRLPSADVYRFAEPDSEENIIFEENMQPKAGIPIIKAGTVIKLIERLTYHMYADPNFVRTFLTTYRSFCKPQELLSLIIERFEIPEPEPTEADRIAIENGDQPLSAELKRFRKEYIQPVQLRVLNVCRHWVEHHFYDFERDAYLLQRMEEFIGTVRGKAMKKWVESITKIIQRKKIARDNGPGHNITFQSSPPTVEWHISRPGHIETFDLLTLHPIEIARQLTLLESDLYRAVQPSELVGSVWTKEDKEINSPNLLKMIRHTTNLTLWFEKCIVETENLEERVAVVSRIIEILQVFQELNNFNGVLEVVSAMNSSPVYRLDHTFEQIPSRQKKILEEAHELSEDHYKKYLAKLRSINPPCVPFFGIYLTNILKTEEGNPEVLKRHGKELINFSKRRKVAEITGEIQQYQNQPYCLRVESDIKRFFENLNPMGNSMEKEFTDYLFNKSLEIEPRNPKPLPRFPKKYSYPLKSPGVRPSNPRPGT

Cc1nc(N[C@H](C)c2cccc(C(F)(F)F)c2C)c2cc(P3(=O)CCN(C(=O)C(F)F)CC3)ccc2n1 [Example 207]
pIC50: 8.16
